Experimental data reported in PubChem BioAssay (NCI).
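Growth conditions: 96-well plates. Treatment: test compound, 48 hours, 5 concentrations. Analysis: linear interpolation between bracketing concentrations; unreached endpoints set to highest concentration. Here, GI50 denotes the concentration required for 50% inhibition of growth. At the TGI there is no net growth.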

What was measured:
Test in all cases: NCI tumour cell line growth inhibition, 48 h
[1] = test system: NCI-H23 lung
[2] = test system: NCI-H460 lung
[3] = test system: NCI-H522 lung
[4] = test system: NCI/ADR-RES ovarian
[5] = test system: OVCAR-3 ovarian
[6] = test system: OVCAR-4 ovarian
[7] = test system: OVCAR-5 ovarian
[8] = test system: OVCAR-8 ovarian
[9] = test system: PC-3 prostate
[10] = test system: RPMI-8226 leukemia
[11] = test system: RXF 393 renal
[12] = test system: SF-268 CNS
[13] = test system: SF-295 CNS
[14] = test system: SF-539 CNS
[15] = test system: SK-MEL-2 melanoma
[16] = test system: SK-MEL-28 melanoma
[17] = test system: SK-MEL-5 melanoma
[18] = test system: SK-OV-3 ovarian
[19] = test system: SN12C renal
[20] = test system: SNB-19 CNS
[21] = test system: SNB-75 CNS
[22] = test system: SR leukemia
[23] = test system: SW-620 colon
[24] = test system: T-47D breast
[25] = test system: TK-10 renal
[26] = test system: U251 CNS
[27] = test system: UACC-257 melanoma
[28] = test system: UACC-62 melanoma
[29] = test system: UO-31 renal

Question: For CCCCCCNC(=O)Oc1ccc(/C(=C(\C)c2ccccc2)c2ccc(OCCN3CCCCC3)cc2)cc1, which TGI [1] is on record?
Answer: Its TGI is 11.6 µM.

Question: And the GI50 [2]?
Answer: Its GI50 is 2.05 µM.

Question: What about the TGI [2] of the same compound?
Answer: Its TGI is 4.35 µM.

Question: And the GI50 [3]?
Answer: Its GI50 is 1.91 µM.

Question: And the TGI [3]?
Answer: Its TGI is 4.07 µM.

Question: What about the GI50 [4] of the same compound?
Answer: Its GI50 is 3.12 µM.

Question: And the TGI [4]?
Answer: Its TGI is 12.7 µM.

Question: And the GI50 [5]?
Answer: Its GI50 is 1.97 µM.

Question: What about the TGI [5] of the same compound?
Answer: The TGI was 4.82 µM.

Question: What about the GI50 [6] of the same compound?
Answer: The GI50 was 3.04 µM.

Question: What about the TGI [6] of the same compound?
Answer: The TGI was 10.7 µM.

Question: What about the GI50 [7] of the same compound?
Answer: The GI50 was 9.75 µM.

Question: What about the TGI [7] of the same compound?
Answer: Its TGI is 24.1 µM.

Question: And the GI50 [8]?
Answer: Its GI50 is 2.14 µM.

Question: What about the TGI [8] of the same compound?
Answer: The TGI was 5.94 µM.

Question: What about the GI50 [9] of the same compound?
Answer: Its GI50 is 2.58 µM.

Question: And the TGI [9]?
Answer: Its TGI is 11.5 µM.

Question: And the GI50 [10]?
Answer: The GI50 was 2.38 µM.

Question: What about the TGI [10] of the same compound?
Answer: Its TGI is 5.57 µM.

Question: And the GI50 [11]?
Answer: The GI50 was 1.52 µM.

Question: And the TGI [11]?
Answer: The TGI was 3.32 µM.

Question: And the GI50 [12]?
Answer: The GI50 was 4.26 µM.

Question: And the TGI [12]?
Answer: Its TGI is 20.2 µM.

Question: What about the GI50 [13] of the same compound?
Answer: Its GI50 is 1.74 µM.

Question: And the TGI [13]?
Answer: Its TGI is 3.5 µM.

Question: And the GI50 [14]?
Answer: The GI50 was 1.75 µM.

Question: What about the TGI [14] of the same compound?
Answer: The TGI was 3.22 µM.

Question: What about the GI50 [15] of the same compound?
Answer: The GI50 was 2 µM.

Question: What about the TGI [15] of the same compound?
Answer: The TGI was 4.33 µM.

Question: And the GI50 [16]?
Answer: Its GI50 is 2.06 µM.

Question: And the TGI [16]?
Answer: The TGI was 4.41 µM.

Question: What about the GI50 [17] of the same compound?
Answer: The GI50 was 1.63 µM.

Question: What about the TGI [17] of the same compound?
Answer: The TGI was 2.99 µM.

Question: What about the GI50 [18] of the same compound?
Answer: Its GI50 is 5.05 µM.

Question: And the TGI [18]?
Answer: Its TGI is 19.3 µM.

Question: What about the GI50 [19] of the same compound?
Answer: The GI50 was 1.7 µM.

Question: And the TGI [19]?
Answer: Its TGI is 3.4 µM.

Question: What about the GI50 [20] of the same compound?
Answer: The GI50 was 4.69 µM.

Question: What about the TGI [20] of the same compound?
Answer: The TGI was 18.2 µM.

Question: What about the GI50 [21] of the same compound?
Answer: Its GI50 is 2.01 µM.

Question: And the TGI [21]?
Answer: Its TGI is 10.1 µM.

Question: What about the GI50 [22] of the same compound?
Answer: Its GI50 is 1.73 µM.

Question: And the TGI [22]?
Answer: Its TGI is 4.39 µM.

Question: And the GI50 [23]?
Answer: Its GI50 is 2.16 µM.

Question: And the TGI [23]?
Answer: The TGI was 5.66 µM.

Question: And the GI50 [24]?
Answer: Its GI50 is 1.14 µM.

Question: And the TGI [24]?
Answer: The TGI was 4.87 µM.

Question: What about the GI50 [25] of the same compound?
Answer: Its GI50 is 7.85 µM.

Question: What about the TGI [25] of the same compound?
Answer: Its TGI is 21.4 µM.

Question: What about the GI50 [26] of the same compound?
Answer: The GI50 was 1.81 µM.

Question: And the TGI [26]?
Answer: The TGI was 3.81 µM.

Question: What about the GI50 [27] of the same compound?
Answer: Its GI50 is 2.69 µM.

Question: What about the TGI [27] of the same compound?
Answer: The TGI was 9.16 µM.

Question: And the GI50 [28]?
Answer: The GI50 was 3.63 µM.

Question: And the TGI [28]?
Answer: Its TGI is 12.5 µM.

Question: What about the GI50 [29] of the same compound?
Answer: The GI50 was 1.38 µM.

Question: What about the TGI [29] of the same compound?
Answer: The TGI was 2.86 µM.
